These are literature values, as cited in EP0517160B1, “Extended-release ophthalmic preparations” (INVERNI DELLA BEFFA S.P.A., priority 1991, dated 1992).

In the case of `C=CC1(C)CC(=O)C2(O)C(C)(O1)C(OC(C)=O)C(O)C1C(C)(C)CCC(O)C12C` (stereo not drawn) [forskoline, 7β-acetoxy-8,13-epoxy-1α,6β,9α-trihydroxy-labd-14-en-11-one], the “maximum of forskoline that dissolves” value (poloxamer 407 25% w/v in water, at 5°C) was 0.12%. Also, under “water”, the “solubility in water (in words)” value is “pratically insoluble in water”.
